Data: US8383822B2, “Substituted oxazolidinones and their use” (Bayer Intellectual Property GmbH, priority 2007, dated 2013)

Experiments:
[1] = biological target: thrombin (Homo sapiens, UniProt P00734); test: Thrombin-inhibitory activity in plasma samples (ecarin, fluorogenic thrombin substrate); format: biochemical; conditions: thrombin inhibition in citrate plasma (Octapharma), ecarin-stimulated, read at about 12 min
Experimental: a.5) Determination of the Thrombin-inhibitory Activity of the Potential Inhibitors in Plasma Samples
Various concentrations of the substances to be tested are dissolved in dimethyl sulphoxide and diluted with water.

[2] = biological target: T1, factor Xa (Homo sapiens, UniProt P00742); test: biochemical; conditions: factor Xa inhibition in citrate plasma (Octapharma), factor X activated by Russel viper venom, ChromozymX substrate, read at about 12 min
T1 construct: tissue Octapharma; host or cells: citrate plasma
Experimental: a.4) Determination of the Factor Xa-inhibitory Activity of the Potential Inhibitors in Plasma Samples
To determine the inhibition of factor Xa in plasma samples, the factor X present in plasma is activated by a protease from rattlesnake toxin. The factor Xa activity or its inhibition by potential inhibitors is then measured by addition of a chromogenic substrate.
Various concentrations of the substances to be tested are dissolved in dimethyl sulphoxide and mixed with an aqueous refludan solution (10 μg/ml). In clear 96-well plates having a flat bottom, 30 μl of citrate plasma (Octapharma) are mixed with 10 μl of the substance dilution.

T1 sequence (P00742 235-488 limits assumed): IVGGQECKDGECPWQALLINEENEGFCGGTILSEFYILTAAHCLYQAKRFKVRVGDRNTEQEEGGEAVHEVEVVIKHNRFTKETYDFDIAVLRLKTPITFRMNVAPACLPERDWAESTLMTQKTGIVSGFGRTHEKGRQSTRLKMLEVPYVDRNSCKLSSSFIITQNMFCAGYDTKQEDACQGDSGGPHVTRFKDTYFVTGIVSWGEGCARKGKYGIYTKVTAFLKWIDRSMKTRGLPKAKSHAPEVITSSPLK
T1 sequence (P00742 41-179 limits assumed): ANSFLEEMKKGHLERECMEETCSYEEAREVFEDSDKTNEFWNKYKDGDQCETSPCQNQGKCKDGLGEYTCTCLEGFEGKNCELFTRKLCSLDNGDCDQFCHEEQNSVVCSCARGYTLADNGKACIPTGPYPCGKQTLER

**Q.** For `COc1cc(N2C[C@H](CNC(=O)c3ccc(Cl)s3)OC2=O)ccc1-n1cccc(CCN[C@H]2CC[C@H](O)CC2)c1=O` [Example 6, 5-Chloro-N-{[(5S)-3-{4-[3-{2-[(trans-4-hydroxycyclohexyl)amino]ethyl}-2-oxopyridin-1(2H)-yl]-3-methoxyphenyl}-2-oxo-1,3-oxazolidin-5-yl]methyl}thiophene-2-carboxamide], which IC50 [1] is on record?
**A.** 143 nM

**Q.** And the IC50 [2]?
**A.** 31 nM

**Q.** How did the IC50 [1] turn out when `COCc1cc(N2C[C@H](CNC(=O)c3ccc(Cl)s3)OC2=O)ccc1-n1cccc(CCNCCO)c1=O` [Example 9, 5-Chloro-N-{[(5S)-3-{4-[3-{2-[(2-hydroxyethyl)amino]ethyl}-2-oxopyridin-1(2H)-yl]-3-(methoxy-methyl)phenyl}-2-oxo-1,3-oxazolidin-5-yl]methyl}thiophene-2-carboxamide] was run?
**A.** 10 nM

**Q.** And the IC50 [2]?
**A.** 11 nM

**Q.** Which results are given for `COCc1cc(N2C[C@H](CNC(=O)c3ccc(Cl)s3)OC2=O)ccc1-n1cccc(CCN[C@H]2CC[C@H](O)CC2)c1=O` [Example 10, 5-Chloro-N-{[(5S)-3-{4-[3-{2-[(trans-4-hydroxycyclohexyl)amino]ethyl}-2-oxopyridin-1(2H)-yl]-3-(methoxymethyl)phenyl}-2-oxo-1,3-oxazolidin-5-yl]methyl}thiophene-2-carboxamide]?
**A.** IC50 [1]: 24 nM; IC50 [2]: 15 nM

**Q.** How did the IC50 [1] turn out when `COCc1cc(N2C[C@H](CNC(=O)c3ccc(Cl)s3)OC2=O)ccc1-n1cccc(CCN2CCN(C)CC2)c1=O` [Example 13] was run?
**A.** 16 nM

**Q.** And the IC50 [2]?
**A.** 17 nM

**Q.** What does the source list for `COCc1cc(N2C[C@H](CNC(=O)c3ccc(Cl)s3)OC2=O)ccc1-n1cccc(CCNCCCO)c1=O` [Example 16]?
**A.** IC50 [1]: 10 nM; IC50 [2]: 18 nM

**Q.** Which IC50 [1] does the source give for `Cc1cc(N2C[C@H](CNC(=O)c3ccc(Cl)s3)OC2=O)ccc1-n1cccc(OCCN[C@H]2CC[C@H](O)CC2)c1=O` [Example 21, 5-Chloro-N-{[(5S)-3-{4-[3-{2-[(trans-4-hydroxycyclohexyl)amino]ethoxy}-2-oxopyridin-1(2H)-yl]-3-methylphenyl}-2-oxo-1,3-oxazolidin-5-yl]methyl}thiophene-2-carboxamide] here?
**A.** 34 nM

**Q.** And the IC50 [2]?
**A.** 11 nM

**Q.** Which IC50 [1] does the source give for `CCCc1cc(N2C[C@H](CNC(=O)c3ccc(Cl)s3)OC2=O)ccc1-n1cccc(OCCNCCO)c1=O` [Example 36, 5-Chloro-N-{[(5S)-3-{4-[3-{2-[(2-hydroxyethyl)amino]ethoxy}-2-oxopyridin-1(2H)-yl]-3-propyl-phenyl}-2-oxo-1,3-oxazolidin-5-yl]methyl}thiophene-2-carboxamide] here?
**A.** 36 nM

**Q.** What about the IC50 [2] of the same molecule?
**A.** 29 nM

**Q.** How did the IC50 [1] turn out when `Cc1cc(N2C[C@H](CNC(=O)c3ccc(Cl)s3)OC2=O)cc(C)c1-n1cccc(CCNCCO)c1=O` [Example 37, 5-Chloro-N-{[(5S)-3-{4-[3-{2-[(2-hydroxyethyl)amino]ethyl}-2-oxopyridin-1(2H)-yl]-3,5-dimethylphenyl}-2-oxo-1,3-oxazolidin-5-yl]methyl}thiophene-2-carboxamide] was run?
**A.** 15 nM

**Q.** What about the IC50 [2] of the same molecule?
**A.** 29 nM
